Results as given in ChEMBL document CHEMBL1909046, “DrugMatrix in vitro pharmacology data”.

What was measured:
[1] = target: T1, Cholecystokinin receptor type A (Homo sapiens, UniProt P32238); type: cell membranes, Membrane; details: 1321-n1; also: in other assays of this panel Not Active means under 50% inhibition at 10 µM
T1 sequence (P32238 whole entry): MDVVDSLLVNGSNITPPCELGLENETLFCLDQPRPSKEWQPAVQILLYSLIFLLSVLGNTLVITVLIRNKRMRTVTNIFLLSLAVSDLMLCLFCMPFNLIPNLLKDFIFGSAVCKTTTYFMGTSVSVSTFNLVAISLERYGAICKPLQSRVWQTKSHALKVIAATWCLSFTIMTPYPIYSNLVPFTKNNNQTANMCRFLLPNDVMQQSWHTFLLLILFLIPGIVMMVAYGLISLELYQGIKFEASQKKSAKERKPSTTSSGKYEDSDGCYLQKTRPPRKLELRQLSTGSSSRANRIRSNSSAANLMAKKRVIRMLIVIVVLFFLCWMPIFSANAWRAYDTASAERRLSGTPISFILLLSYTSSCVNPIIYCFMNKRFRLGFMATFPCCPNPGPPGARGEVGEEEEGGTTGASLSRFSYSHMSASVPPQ

[2] = target: T2, Alpha-1D adrenergic receptor (Homo sapiens, UniProt P25100); type: cell membranes, HEK293, Membrane; also: in other assays of this panel Not Active means under 50% inhibition at 10 µM
T2 sequence (P25100 whole entry): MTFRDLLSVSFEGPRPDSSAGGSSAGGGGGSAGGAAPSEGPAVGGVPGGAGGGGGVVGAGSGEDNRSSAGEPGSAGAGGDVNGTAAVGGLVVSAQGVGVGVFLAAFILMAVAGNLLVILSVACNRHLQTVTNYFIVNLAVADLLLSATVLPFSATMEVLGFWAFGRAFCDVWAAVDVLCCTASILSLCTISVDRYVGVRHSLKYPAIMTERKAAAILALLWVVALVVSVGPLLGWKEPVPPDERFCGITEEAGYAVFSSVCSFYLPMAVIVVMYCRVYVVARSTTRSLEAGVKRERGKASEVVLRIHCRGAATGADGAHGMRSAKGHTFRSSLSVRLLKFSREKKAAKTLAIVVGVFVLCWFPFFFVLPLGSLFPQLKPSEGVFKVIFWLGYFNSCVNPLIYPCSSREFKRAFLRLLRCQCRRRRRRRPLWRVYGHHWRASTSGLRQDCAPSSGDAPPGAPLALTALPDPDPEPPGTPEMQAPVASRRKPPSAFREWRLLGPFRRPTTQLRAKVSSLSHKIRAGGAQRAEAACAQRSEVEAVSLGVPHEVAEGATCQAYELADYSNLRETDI

[3] = DRUGMATRIX: Calcium Channel Type L, Benzothiazepine radioligand binding (ligand: [3H] Diltiazem); type: cell membranes, Rattus norvegicus, Wistar, Brain, Membrane; details: Not Active = under 50% inhibition at 10 µM
Melanocortin receptor 4 = Melanocortin receptor 4 (Homo sapiens, UniProt P32245); type: cell membranes, Membrane; details: hek293; also: in other assays of this panel Not Active means under 50% inhibition at 10 µM
[4] = target: Beta-1 adrenergic receptor (Homo sapiens, UniProt P08588); test: DRUGMATRIX: Adrenergic beta1 radioligand binding (ligand: [125I] Cyanopindolol); type: cell membranes, CHO-K1, Membrane; details: cho-k1; Not Active = under 50% inhibition at 10 µM
Carbonic anhydrase 2 = Carbonic anhydrase 2 (Homo sapiens, UniProt P00918); test: DRUGMATRIX: Carbonic Anhydrase II enzyme inhibition (substrate: 4-Nitrophenyl acetate (4-NPA)); type: tissue-based, Erythrocyte; details: erythrocyte; Not Active = under 50% inhibition at 10 µM
[5] = DRUGMATRIX: Serotonin (5-Hydroxytryptamine) 5-HT3 radioligand binding (ligand: [3H] GR-65630); type: cell membranes, Membrane; details: hek293; Not Active = under 50% inhibition at 10 µM

Beta-1 adrenergic receptor, sequence (P08588 whole entry): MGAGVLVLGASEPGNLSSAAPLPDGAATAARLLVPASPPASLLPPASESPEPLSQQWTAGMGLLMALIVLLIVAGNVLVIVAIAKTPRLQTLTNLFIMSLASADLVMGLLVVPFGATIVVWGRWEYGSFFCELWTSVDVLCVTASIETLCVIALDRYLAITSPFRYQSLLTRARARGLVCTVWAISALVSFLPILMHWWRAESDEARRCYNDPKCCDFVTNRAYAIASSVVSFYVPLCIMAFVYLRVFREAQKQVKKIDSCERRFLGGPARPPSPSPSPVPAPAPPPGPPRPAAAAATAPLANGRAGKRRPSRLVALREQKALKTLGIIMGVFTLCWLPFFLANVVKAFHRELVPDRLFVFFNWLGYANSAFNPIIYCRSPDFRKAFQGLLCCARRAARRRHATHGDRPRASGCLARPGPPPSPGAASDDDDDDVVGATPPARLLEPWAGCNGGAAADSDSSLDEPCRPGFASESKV
Melanocortin receptor 4, sequence (P32245 whole entry): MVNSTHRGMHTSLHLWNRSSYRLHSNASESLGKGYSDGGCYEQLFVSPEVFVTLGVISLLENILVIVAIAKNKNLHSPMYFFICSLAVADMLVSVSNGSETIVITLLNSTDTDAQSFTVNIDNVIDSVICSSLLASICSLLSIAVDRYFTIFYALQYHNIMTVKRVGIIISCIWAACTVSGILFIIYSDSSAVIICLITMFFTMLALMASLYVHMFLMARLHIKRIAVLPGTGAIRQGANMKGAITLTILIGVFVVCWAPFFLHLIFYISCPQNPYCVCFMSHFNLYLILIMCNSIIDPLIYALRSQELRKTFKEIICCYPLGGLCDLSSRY

Compound	IC50 [1]	IC50 ([2]; hek293)	IC50 [3]	Ki [3]	IC50 (Melanocortin receptor 4)	IC50 [4]	IC50 (Carbonic anhydrase 2)	IC50 [5]	Ki [5]	Ki [1]	Ki ([2]; hek293)	Ki (Melanocortin receptor 4)	Ki [4]	Ki (Carbonic anhydrase 2)	IC50 ([2]; read-out: IC50)	Ki ([2]; read-out: Ki)
C=C(CC)C(=O)c1ccc(OCC(=O)O)c(Cl)c1Cl [ETHACRYNIC ACID]	Not Active	Not Active	Not Active	Not Active	Not Active	Not Active	Not Active	Not Active	Not Active							
CC(C(=O)O)c1ccc(-c2ccccc2)c(F)c1 (stereo not drawn) [FLURBIPROFEN]	Not Active	Not Active	Not Active	Not Active	Not Active	Not Active	Not Active	Not Active	Not Active							
COc1ccccc1OCC(O)COC(N)=O (stereo not drawn) [METHOCARBAMOL]	Not Active	Not Active	Not Active	Not Active	Not Active	Not Active	Not Active	Not Active	Not Active							
CC(C(=O)O)c1ccc(CC2CCCC2=O)cc1 (stereo not drawn) [LOXOPROFEN]	Not Active	Not Active	Not Active	Not Active	Not Active	Not Active	Not Active	Not Active	Not Active							
CCCCC1C(=O)N(c2ccccc2)N(c2ccccc2)C1=O [PHENYLBUTAZONE]	Not Active	Not Active	Not Active	Not Active	Not Active	Not Active	Not Active	Not Active	Not Active							
CCN[C@@H](C)Cc1cccc(C(F)(F)F)c1 [DEXFENFLURAMINE]	Not Active	Not Active	Not Active	Not Active	Not Active	Not Active	Not Active	Not Active	Not Active							
COc1ccccc1OCC(O)CO (stereo not drawn) [GUAIFENESIN]	Not Active	Not Active	Not Active	Not Active	Not Active	Not Active	Not Active	Not Active	Not Active							
CCC(=O)O[C@H]1[C@H](O[C@@H]2[C@@H](C)[C@H](O[C@H]3C[C@@](C)(OC)[C@@H](O)[C@H](C)O3)[C@@H](C)C(=O)O[C@H](CC)[C@@](C)(O)[C@H](O)[C@@H](C)C(=O)[C@H](C)C[C@@]2(C)O)O[C@H](C)C[C@@H]1N(C)C [ERYTHROMYCIN PROPIONATE]	Not Active	Not Active	Not Active	Not Active	Not Active	Not Active	Not Active	Not Active	Not Active							
C=C1/C(=C\C=C2/CCC[C@]3(C)[C@@H]([C@H](C)CCCC(C)C)CC[C@@H]23)C[C@@H](O)C[C@@H]1O [ALFACALCIDOL]	Not Active	Not Active	Not Active	Not Active	Not Active	Not Active	Not Active	Not Active	Not Active							
CS(=O)(=O)OCCCCOS(C)(=O)=O [BUSULFAN]	Not Active	Not Active	Not Active	Not Active	Not Active	Not Active	Not Active	Not Active	Not Active							
C[C@]12CCC(=O)C=C1CC[C@@H]1[C@@H]2[C@@H](O)C[C@@]2(C)[C@H]1CC[C@]2(O)C(=O)CO [HYDROCORTISONE]	Not Active	Not Active	Not Active	Not Active	Not Active	Not Active	Not Active	Not Active	Not Active							
POLYVINYL ALCOHOL	Not Active	Not Active	Not Active	Not Active	Not Active	Not Active	Not Active	Not Active	Not Active	Not Active	Not Active	Not Active	Not Active	Not Active		
COBALT(II) ACETYLACETONATE	Not Active	Not Active	Not Active	Not Active	Not Active	Not Active	Not Active	Not Active	Not Active	Not Active	Not Active	Not Active	Not Active	Not Active		
Nc1nc(N)nc(NC2CC2)n1 [CYROMAZINE]	Not Active	Not Active	Not Active	Not Active	Not Active	Not Active	Not Active	Not Active	Not Active							
CN(C(=O)CCCOc1ccc2[nH]c(=O)ccc2c1)C1CCCCC1 [CILOSTAMIDE]	Not Active	Not Active	Not Active	Not Active	Not Active	Not Active	Not Active	Not Active	Not Active							
CC(C)(Oc1ccc(C2CC2(Cl)Cl)cc1)C(=O)O (stereo not drawn) [CIPROFIBRATE]	Not Active	Not Active	Not Active	Not Active	Not Active	Not Active	Not Active	Not Active	Not Active							
Cc1cn[nH]c1 [FOMEPIZOLE]	Not Active	Not Active	Not Active	Not Active	Not Active	Not Active	Not Active	Not Active	Not Active							
CCc1oc2ccccc2c1C(=O)c1cc(Br)c(O)c(Br)c1 [BENZBROMARONE]	Not Active	Not Active	Not Active	Not Active	Not Active	Not Active	Not Active	Not Active	Not Active							
CN1C[C@H](C(=O)N[C@]2(C)O[C@@]3(O)[C@@H]4CCCN4C(=O)[C@H](Cc4ccccc4)N3C2=O)C[C@@H]2c3cccc4[nH]cc(c34)C[C@H]21 [DIHYDROERGOTAMINE]	Not Active		Not Active	Not Active	Not Active	Not Active	Not Active	Not Active	Not Active						29 nM	14 nM
CNC(=C[N+](=O)[O-])NCCSCc1csc(CN(C)C)n1 [NIZATIDINE]	Not Active	Not Active	Not Active	Not Active	Not Active	Not Active	Not Active	Not Active	Not Active							
CCC[C@@H]1C[C@@H](C(=O)N[C@@H]([C@H]2O[C@H](SC)[C@H](O)[C@@H](O)[C@H]2O)[C@H](C)Cl)N(C)C1 [CLINDAMYCIN]	Not Active	Not Active	Not Active	Not Active	Not Active	Not Active	Not Active	Not Active	Not Active							
NC[C@H]1O[C@H](O[C@H]2[C@H](O)[C@@H](O[C@H]3O[C@H](CO)[C@@H](O)[C@H](N)[C@H]3O)[C@H](N)C[C@@H]2N)[C@H](O)[C@@H](O)[C@@H]1O [KANAMYCIN]	Not Active	Not Active	Not Active	Not Active	Not Active		Not Active	Not Active	Not Active							
